Results on one substance are retold here after patent publication US11529311B2, “Method of using nebulized alcohol for analgesia” (BN Intellectual Properties, Inc., priority 2021, dated 2022).

How the values of series [1] were obtained:
Example 3: A third patient experienced acute pain from a chronic back injury which occurred during a car accident approximately 40 years earlier. The patient experienced acute pain for about 8 hours, requiring assistance to lower themself to sit in a chair, to stand up from the chair, and to walk about.

For series [2] the following is noted: adult, 1-2 inhalations. From the text:
Example 2: A second patient treatment is of an adult experiencing sinus headaches using nebulized ethanol solution.

This is another data set of the same source.
How the values of series [3] were obtained:
Example 1: A first patient treatment example is that of an adult experiencing pain from multiple neck injuries and replaced vertebrae who was treating pain using 60 mg Oxycontin® (30 mg in morning and night) and 6 doses of Percocet® daily as needed before ethanol treatment. The patient's opioid usage history spanned 11 years. The first patient also took Ambien® at night to promote sleep.
The first patient takes nebulized alcohol in the morning and at bedtime (about 3-4 inhalations each time), wakes in the night to use the bathroom, and occasionally takes nebulized alcohol during the night.
This is another data set of the same source.

Where [4] appears, read: over the course of ethanol treatment.
[5] abbreviates: patient report, result of reduced Oxycontin doses.
[6] abbreviates: patient report, nebulized alcohol morning and bedtime.

Regarding Ethyl alcohol [nebulized ethanol], the “pain relief after repeated treatment” value in series [1] (4 inhalations per treatment) was “complete relief”. In series [1] (5 inhalations per treatment), the “pain relief after initial session” value is given as “complete pain relief” and the “time until pain recurred after the initial session” value is reported as “approximately 12 hours”. Besides, in series [1] (in vivo), the “time to complete remission of pain” value is 48 h and the “time to remission relative to time with other analgesics prior to ethanol therapy” value is listed as “approximately 50%”. Moreover, in series [2], the “rate of achieving pain relief compared with other treatments (sinus rinse, other pain medications)” value is recorded as “significantly faster”. The “duration of brain effects (euphoria, and so forth)” value (persons in the absence of significant pain) is on record as “about 2 hours”. For the same substance, under “persons who take nebulized alcohol for pain”, the “reported feeling (side effects)” value is reported as “moderate sleepiness or drowsiness, but not “buzzed” or “intoxicated””. Also, the “reported levels of pain” value in series [3] (adult male, 11 years of opioid use, over the course of ethanol treatment, about 3-4 inhalations morning and bedtime) was “significantly lower”. Further, the Oxycontin usage in series [3] (after 6 months of ethanol therapy, 60 mg daily before treatment) was determined as 10 mg/day. The Percocet usage entry in series [3] (after 6 months of ethanol therapy, 6 doses daily as needed before treatment) is listed as “no Percocet® during the day”. In series [3] (setting [4]), the opioid usage entry is listed as “reduced”; the “physical stamina, physical performance (kidney and bowel function), and mental acuity” value was “improved”. Moreover, in series [3] (setting [5]), the “alertness, attention, and mental acuity” value is given as “increased”; the bowel function entry is “increased bowel function”; the mobility result was “greater mobility (able to resume dance activities)”; the posture entry is reported as “improved posture (able to hold head in a vertical position)”. Besides, the renal function result in series [3] (setting [5]) is recorded as “increased renal function (no more water retention/bloating)”. Also, in series [3] (setting [6]), the quality of sleep entry was “increased”; the “usage of sleep aids to counteract discomfort and pain from injuries” value is recorded as “reduced”.
